Laboratory results: US20260216239A1 (Arizona Board of Regents on Behalf of the University of …, priority 2020, published 2026)
Entries after “also recorded” stand apart in the source; their conditions may differ.

System: Pseudonaja textilis venom
Experiment: Thrombelastography in human plasma of venom procoagulant activity after isolated exposure of venom to compounds
Format: biochemical
Conditions: for maximum rate of thrombus generation (MRTG) / total thrombus generation (TTG), clot strength: 100 μM CORM-3, 100 μM RuCl3 or both; for maximum rate of thrombus generation (MRTG) / total thrombus generation (TTG), clot strength / time to maximum rate of thrombus generation (TMRTG): venom 0.1 μg/ml in plasma; for time to maximum rate of thrombus generation (TMRTG): venom exposed 5 min in PBS to 100 μM CORM-3, 100 μM RuCl3 or both
Protocol: […] A sample of each of these venom mixtures was then placed into human plasma (0.1 μg/ml final concentration of venom), with coagulation determined by thrombelastography until final clot strength stabilized.
All venom solutions without or with chemical additions in isolation were added as a 1% addition to the plasma mix used in our thrombelastographic system (see, Nielsen, V. G.; et al., Biometals 2016, 29, 913-919; Nielsen, V. G.; Losada, P. A. Basic Clin. Pharmacol. Toxicol. 2017, 120, 207-212; Nielsen, V. G.; Frank, N. J. Thromb. Thrombolysis 2019, 47, 533-539; Nielsen, V. G.; Bazzell, C. M. J. Thromb. Thrombolysis 2017, 43, 203-208; Nielsen, V. G.; Matika, R. W. Hum. Exp. Toxicol. 2017, 36, 727-733; Nielsen, V. G.; et al., Toxins 2018, 10, 322; Nielsen, V. G.; et al., Biometals 2018, 31, 51-59; Nielsen, V. G.; Frank, N. et al., Biometals 2018, 31, 951-959; Nielsen, V. G.; et al., Toxins 2019, 11, 94; Nielsen, V. G.; Frank, N. Hum Exp. Toxicol. 2019, 38, 216-226; Nielsen, V. G. J. Thromb. Thrombolysis 2019, 48, 256-262; Nielsen, V. G.; et al., Blood Coagul. Fibrinolysis 2019, 30, 379-384; Nielsen, V. G. J. Thromb. Thrombolysis 2019, 47, 73-79; Gessner, G.; et al., Eur. J. Pharmacol. 2017, 815, 33-41). […] The thrombelastographic model describes coagulation kinetics with the following three variables: time to maximum thrombus generation (TMRTG, minutes—a measure of time to onset of coagulation), maximum rate of thrombus generation (MRTG, dynes/cm^2/s—a measure of the velocity of clot growth) and total thrombus generation (TTG, dynes/cm^2—a measure of clot strength).
The volumes of subsequently described plasmatic and other additives summed to a final volume of 360 μL. Samples were composed of 320 μL of plasma; 16.4 μL of PBS, 20 μL of 200 mM CaCl2), and 3.6 μL of PBS, RuCl3, or venom solution mixture, which were pipetted into a disposable cup in a Thrombelastograph® hemostasis system (Model 5000, Haemonetics Inc., Braintree, MA, USA) at 37° C., and then rapidly mixed by moving the cup up against and then away from the plastic pin five times. The PBS, RuCl3, or venom solution mixtures was always the last constituent added prior to mixing and data collection. The following viscoelastic parameters described previously (see, Nielsen, V. G.; et al., Biometals 2016, 29, 913-919; Nielsen, V. G.; Losada, P. A. Basic Clin. Pharmacol. Toxicol. 2017, 120, 207-212; Nielsen, V. G.; Frank, N. J. Thromb. Thrombolysis 2019, 47, 533-539; Nielsen, V. G.; Bazzell, C. M. J. Thromb. Thrombolysis 2017, 43, 203-208; Nielsen, V. G.; Matika, R. W. Hum. Exp. Toxicol. 2017, 36, 727-733; Nielsen, V. G.; et al., Toxins 2018, 10, 322; Nielsen, V. G.; et al., Biometals 2018, 31, 51-59; Nielsen, V. G.; Frank, N. et al., Biometals 2018, 31, 951-959; Nielsen, V. G.; et al., Toxins 2019, 11, 94; Nielsen, V. G.; Frank, N. Hum Exp. Toxicol. 2019, 38, 216-226; Nielsen, V. G. J. Thromb. Thrombolysis 2019, 48, 256-262; Nielsen, V. G.; et al., Blood Coagul. Fibrinolysis 2019, 30, 379-384; Nielsen, V. G. J. Thromb.

Compound | procoagulant activity of venom (venom exposed 5 min to 100 μM CORM-2 in 5% human albumin, venom 100 ng/mL in plasma) | procoagulant activity of venom (venom exposed 5 min to 100 μM CORM-2 in PBS, venom 100 ng/mL in plasma) | maximum rate of thrombus generation (MRTG) | total thrombus generation (TTG), clot strength | time to maximum rate of thrombus generation (TMRTG) | procoagulant activity of venom (venom exposed 5 min to 100 μM RuCl3 in PBS, venom 100 ng/mL in plasma (Example III))
[C-]#[O+].[C-]#[O+].[C-]#[O+].[C-]#[O+].[C-]#[O+].[C-]#[O+].[Cl][Ru][Cl].[Cl][Ru][Cl] [CORM-2, tricarbonyldichlororuthenium(II) dimer] | uninhibited | significantly attenuated |  |  |  | 
[Cl][Ru]([Cl])[Cl] [RuCl3, ruthenium(III) chloride] |  |  | significantly decreased; also recorded: decrease | enhanced; also recorded: increase | significantly increased; also recorded: significant increase | significant loss of procoagulant activity
Tricarbonylchloro(glycinato)ruthenium [CORM-3] |  |  | significantly decreased; also recorded: decrease | enhanced; also recorded: increase | significantly increased; also recorded: significant increase | 
